Data set [1] concerns the target T1, Human tyrosinase (Homo sapiens, UniProt P14679).
T1 construct: endogenous in cells; host or cells: normal human melanocytes (abdominal surgery; several donors of fair, brown and black phototypes)
T1 sequence (P14679 19-529): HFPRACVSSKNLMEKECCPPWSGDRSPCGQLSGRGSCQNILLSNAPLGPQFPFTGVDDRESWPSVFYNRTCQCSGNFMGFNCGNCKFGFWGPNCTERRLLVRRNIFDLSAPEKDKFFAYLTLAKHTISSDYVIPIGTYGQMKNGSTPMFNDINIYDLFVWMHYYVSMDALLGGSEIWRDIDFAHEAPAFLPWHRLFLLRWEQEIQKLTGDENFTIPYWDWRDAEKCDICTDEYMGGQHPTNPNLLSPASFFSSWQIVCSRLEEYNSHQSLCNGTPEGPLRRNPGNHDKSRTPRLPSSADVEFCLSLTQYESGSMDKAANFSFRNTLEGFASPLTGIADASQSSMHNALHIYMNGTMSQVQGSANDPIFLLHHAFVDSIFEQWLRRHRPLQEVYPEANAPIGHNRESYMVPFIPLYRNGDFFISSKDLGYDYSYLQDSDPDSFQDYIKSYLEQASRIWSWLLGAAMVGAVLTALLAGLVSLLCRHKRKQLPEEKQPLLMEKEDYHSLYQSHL
Nature of the data set: Inhibition of human tyrosinase after 24 h application to normal human melanocytes in monolayer. Format: cell-based. To be noted: for inhibition at 100 µM: read-out: Inhibition of human tyrosinase after application to normal human melanocytes, percentage of inhibition, Mean 10^−4M; for inhibition at 10 µM: 10^−5M, read-out: Inhibition of human tyrosinase after application to normal human melanocytes, percentage of inhibition, Mean 10^−5M; for anti-tyrosinase activity, in words: comment on Table 4, normal human melanocytes; for Tyrosinase inhibition, Mean Inhibition (%), 0.03%: test concentration 0.03%. Here is the method:
Normal human melanocytes (obtained from abdominal surgery) are seeded in 24-well plates at a rate of 80 000 cells per well. They are cultured to confluence and the active agents are applied for 24 hours to the culture media. After 24 hours, the media are removed and the melanocytes are detached via mechanical action. An extraction is performed via a thermal shock and the supernatants are then recovered and incubated with MBTH (Sigma) and L-dopa (Sigma). The OD at 490 nm is measured after 30 minutes, and the tyrosinase inhibition is calculated by relating the OD at 490 nm to the protein content (measured in each culture well) of the test relative to the ratio: OD 490 nm/protein concentration of the negative control (untreated control).
The compounds derived from the examples mentioned above were tested on melanocytes derived from various donors but of fair phototype, according to the protocol described in Example 29. The donors tested are as follows: • donor S (donor tested in Example 12): • donor 1: • donor 2: • donor 3
The compound derived from Example 1 is tested on cultures of melanocytes obtained from 2 donors of brown phototype and from one donor of black phototype. The protocol applied is that described in Example 29. […]

A further data set deals with normal human melanocytes. Nature of the data set: Cytotoxicity on normal human melanocytes, PNPP assay. Format: cell-based. To be noted: 24 hours, relative to untreated wells. Here is the method: The cytotoxicity of the active agents is studied on normal human melanocytes in 24-well plates, via assay with PNPP (P-nitrophenyl phosphate), this substance being converted into p-nitrophenol via the intracellular acid phosphatases of viable cells. The absorbance of p-nitrophenol at 405 nm is directly proportional to the number of viable cells.
The active agents are tested at 2 different concentrations (10^−4 M and 10^−5 M) and added to the culture medium and incubated at 37° C. for 24 hours. The assay with PNPP is performed on the cell lawn and the results are expressed as a percentage of viability relative to the negative control (untreated wells).

The target in data set [2] is T1, Human tyrosinase. The data set is described as follows: In vitro test of inhibition of human tyrosinase from melanocyte extracts (L-dopa/MBTH, OD 490 nm). In kind it is biochemical. The settings on record: melanocyte extract. On the procedure: Human tyrosinase, obtained from melanocyte extracts obtained from healthy donors, catalyses the formation of L-dopaquinone from L-dopa. Now, the L-dopaquinone may be quantified by visible spectrophotometry at 490 nm by means of a chromogen: 3-methyl-2-benzothiazolinone hydrazone (MBTH).
The melanocyte extract is obtained after lysis of cell membranes of the normal human melanocytes, performed via a thermal shock. The supernatant is recovered and then incubated with MBTH (Sigma) and L-dopa (Sigma). […]

Data set [3] can be described thus: Antiradical activity, acellular DPPH model. The settings on record: DPPH 30 minutes, absorbance 520 nm. On the procedure: The antiradical activity of the derivatives derived from the syntheses described above was evaluated in an in vitro acellular model using DPPH.
1,1-Diphenyl 2-picryihydrazyl, on account of its paramagnetic structure, can accept an electron or a hydrogen radical to become a stable diamagnetic molecule. This free radical, which is purple coloured in ethanol, has a strong absorption band at 520 nm.
The addition of a compound that provides electrons results in a decolorization of the 1,1-diphenyl 2-picrylhydrazyl that is proportional to the number of electrons taken up by the radical, which may be monitored by measuring the absorbance at 520 nm.
DPPH is incubated for 30 minutes in the presence of the derivatives described above, tested at a concentration of 10^−5M, or alone for the control. At the end of the incubation, the antiradical activity of the above derivatives is evaluated by measuring the absorbance of the solution at 520 nm.
The antiradical activity of each test product is calculated according to the formula, as a percentage: 100−((OD520 in the presence of the test compound/OD520 in the absence of compound)×100)
On the technique in general: DPPH is a stable violet radical that fades when it is reduced.

A further data set has as its system fungal tyrosinase. The data set is described as follows: In vitro test of inhibition of isolated fungal tyrosinase (L-dopa, dopachrome OD 490 nm). In kind it is biochemical. From the text:
Tyrosinase catalyses the formation of L-dopaquinone and then of dopachrome from L-dopa. Now, dopachrome is a coloured compound that may be quantified by visible spectrophotometry at 490 nm. The use of an active agent capable of modifying the enzymatic activity will be reflected by a variation in the optical density at 490 nm. The to ratio of the rates of formation of dopachrome makes it possible to determine precisely the activations or inhibitions obtained with the various test molecules.
The sample to be tested is incubated in the presence of fungal tyrosinase (Sigma), for 5 minutes with stirring. L-Dopa (Sigma), a tyrosinase substrate, is incubated for 10 minutes in the absence of light, in the presence or absence of the test molecules. The calculation of the percentage of inhibition is performed by relating the test OD to the OD of the negative control without molecule.
In the context of this in vitro test, the p-coumaric acid derivatives were tested at final concentrations of 10^−4M and 10^−5M.

The next data set deals with melanocytes. Nature of the data set: Cytotoxicity of literature controls in the melanocyte tyrosinase model. On the procedure: A study is performed with molecules known in the literature for their depigmenting activity; these molecules are applied to the model described in Example 29 so as to compare their efficacy relative to the molecules described in the various examples. […]

Like-named read-outs stand apart in the source and are kept apart here.

We go through 15 compounds from patent US9089499B2, “Para-coumaric acid or para-hydroxycinnamic acid derivatives and their use in cosmetic or dermatological compositions” (BASF Beauty Care Solutions France S.A.S., priority 2005, dated 2015).

Regarding `O=C(O)C=Cc1ccc(O)c(O)c1` [Caffeic acid, 3,4-dihydroxycinnamic acid, reference compound], the inhibition (as a rule, the share of the control response that was lost under treatment) at 100 µM at Human tyrosinase [1] (10^−4M, 24 hours) was 10.4%. Further, the inhibition at 10 µM at Human tyrosinase [1] (24 hours) was 2.34%. For the same compound, the “anti-tyrosinase activity, in words” value at Human tyrosinase [1] is reported as “very low activity”.

Regarding `Cl.NCCc1ccc(O)c(O)c1` [Dopamine, 3-hydroxytyramine, reference compound], on Human tyrosinase [1], the “anti-tyrosinase activity, in words” value is given as “very low activity” and the inhibition at 100 µM was 10.3%.

On to `COc1cc(/C=C/C(=O)NCCc2ccc(OC)c(OC)c2)ccc1O` [Example 2, N-trans-feruloyl-3,4-dimethoxydopamine], for which, in the data set on normal human melanocytes (10^−4 M), the “Percentages of viability, Mean 10^−4 M” value is 114.29%. In addition, the “Percentages of viability, Mean 10^−5 M” value with normal human melanocytes (10^−5 M) was found to be 114.6%. In addition, the inhibition at 100 µM on Human tyrosinase [2] (10^−4M, read-out: Inhibition of human tyrosinase, percentage of inhibition, Mean 10^−4M) is 0.94%; at Human tyrosinase [1] (10^−4M, 24 hours), 24.6%. For the same compound, the inhibition at 10 µM was determined as 0% on Human tyrosinase [2] (10^−5M, read-out: Inhibition of human tyrosinase, percentage of inhibition, Mean 10^−5M) and 18.5% at Human tyrosinase [1] (24 hours). Moreover, in data set [3], the “Antiradical activity, Mean 10^−5 M” value is 20.16%. In the data set on fungal tyrosinase (10^−4M, 490 nm), the “Inhibition of fungal tyrosinase, percentage of inhibition, Mean 10^−4M” value is 0%.

In the case of `COc1cc(CCC(=O)NCCc2ccc(O)cc2)ccc1O` [Example 5, N-dihydroferuloyltyramine], the inhibition at 100 µM at Human tyrosinase [1] (10^−4M, 24 hours) was determined as 27.7%.

For the compound `COc1cc(CCC(=O)NCCc2ccc(O)c(O)c2)ccc1O` [Example 6, N-dihydroferuloyldopamine], the inhibition at 100 µM at Human tyrosinase [1] (10^−4M, 24 hours) was 41.8%.

For `COc1cc(/C=C/C(=O)OCCc2ccc(O)cc2)ccc1O` [Example 7, 2-(p-hydroxyphenylethyl)trans-ferulate], the inhibition at 100 µM on Human tyrosinase [1] (10^−4M, 24 hours) amounted to 33.6%. Besides, the inhibition at 10 µM at Human tyrosinase [1] (24 hours) came out at 3.48%.

Consider `O=C(CCc1ccc(O)c(O)c1)NCCc1ccc(O)cc1` [Example 13, dihydrocaffeoyltyramine], for which the inhibition at 100 µM at Human tyrosinase [1] (10^−4M, 24 hours) amounted to 93.9%. Further, the inhibition at 10 µM at Human tyrosinase [1] (24 hours) was determined as 12.9%.

On to `O=C(CCc1ccc(O)cc1)NCCc1ccc(O)cc1` [Example 16, N-dihydrocoumaroyltyramine], for which the inhibition at 100 µM on Human tyrosinase [1] (10^−4M, 24 hours) came out at 96.2%. Further, on Human tyrosinase [1] (24 hours), the inhibition at 10 µM came out at 40.7%.

For the compound `COc1cc(C=CC(=O)O)ccc1O` [Ferulic acid, 4-hydroxy-3-methoxycinnamic acid, reference compound], the inhibition at 100 µM on Human tyrosinase [1] (10^−4M, 24 hours) came out at 11.7%. Moreover, the inhibition at 10 µM on Human tyrosinase [1] (24 hours) came out at 5.87%. Also, at Human tyrosinase [1], the “anti-tyrosinase activity, in words” value is “very sparingly active”.

As to `O=c1cc(CO)occ1O` [Kojic acid, kojic acid], in the data set with melanocytes, the “Cytotoxicity, 0.005%” value is reported as “no”; the “Cytotoxicity, 0.05%” value was “no”; the “Cytotoxicity, 0.5%” value is “cell death”. Further, the “Inhibition of fungal tyrosinase, positive control” value with fungal tyrosinase (0.01%) is listed as 45%.

Consider `Cl.NCCc1ccc(O)cc1` [Tyramine, reference compound], for which, at Human tyrosinase [1], the “anti-tyrosinase activity, in words” value is “very low activity” and the inhibition at 100 µM stood at 22.8%.

In the case of `O=C1O[C@H]([C@@H](O)CO)C([O-])=C1OP(=O)([O-])[O-].O=C1O[C@H]([C@@H](O)CO)C([O-])=C1OP(=O)([O-])[O-].[Mg+2].[Mg+2].[Mg+2]` [VitC MgP, reference compound], the “Tyrosinase inhibition, Mean Inhibition (%), 0.03%” value at Human tyrosinase [1] came to 2.93%. Moreover, the “Tyrosinase inhibition, Mean Inhibition (%), 0.3%” value at Human tyrosinase [1] (test concentration 0.3%) is given as 1.55%. Also, on Human tyrosinase [1] (test concentration 3%), the “Tyrosinase inhibition, Mean Inhibition (%), 3%” value is reported as 0%. In the data set with melanocytes, the “Cytotoxicity, 0.03%” value is recorded as “no”; the “Cytotoxicity, 0.3%” value was “no”; the “Cytotoxicity, 3%” value is “no”.

Turning to `O=C1O[C@H]([C@@H](O)CO)C(O)=C1O` [VitC, Vitamin C], at Human tyrosinase [1], the “Tyrosinase inhibition, Mean Inhibition (%), 0.03%” value amounted to 0%. Further, in the data set on melanocytes, the “Cytotoxicity, 0.03%” value was “no”. Moreover, in the data set with melanocytes (test concentration 0.3%), the “Cytotoxicity, 0.3%” value was “cell death”. The “Cytotoxicity, 3%” value in the data set with melanocytes (test concentration 3%) is “cell death”.

In the case of `O=C(O)C=Cc1ccc(O)cc1` [p-Coumaric acid, p-hydroxycinnamic acid, reference compound], the inhibition at 100 µM at Human tyrosinase [1] (10^−4M, 24 hours) is 50.1%.

In the case of `O=C(O)CCc1ccc(O)cc1` [p-Dihydrocoumaric acid, 3-(4-hydroxyphenyl)propionic acid, reference compound], at Human tyrosinase [1] (10^−4M, 24 hours), the inhibition at 100 µM turned out to be 3.74%.
